Experimental data taken from US20230109839A1, “THERAPEUTIC AGENT FOR TAUOPATHIES” (SUMITOMO PHARMA CO., LTD., priority 2020, published 2023).
Read-outs that look alike come from different tables or passages of the source.

Molecular target: T1, human Nav1.1 (Homo sapiens, UniProt P35498)
T1 construct: host or cells: HEK293
Assay: Amplification of Nav1.1-derived voltage-gated sodium current (Nav1.1 current), automated patch clamp (Test 1)
Assay type: cell-based
Outline: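 HEK293 cells stably expressing human Nav1.1, restricted to cells with >500 pA current, were recorded by automated voltage-clamp patch clamp with a ramp voltage stimulus. Compounds were applied in HEPES-buffered extracellular solution with 1% DMSO. Amplification (%) = 100×(peak or AUC after/before compound)−100.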

[1] = Concentration for evaluation 10 μM, HEK293 cell line stably expressing human Nav1.1
[2] = Concentration for evaluation 1 μM, HEK293 cell line stably expressing human Nav1.1
[3] = Concentration for evaluation 3 μM, HEK293 cell line stably expressing human Nav1.1
[4] = Concentration for evaluation 50 μM, HEK293 cell line stably expressing human Nav1.1
[5] = HEK293, concentration for evaluation 1 μM, HEK293 stably expressing human Nav1.1, read-out: Nav1.1 current amplification rate (%)
[6] = concentration for evaluation 1 μM, HEK293 stably expressing human Nav1.1

CC1CC=C(c2ccc(=O)n(CC(=O)Nc3cc(F)c4ocnc4c3)n2)CC1 (stereo not shown) [Example 241]
Nav1.1 current amplification rate (%) [1]: 260%

CC1CC=C(c2cnc3cnn(CC(=O)Nc4ccc5ncnn5c4)c3n2)CC1 (stereo not shown) [Example 653]
Nav1.1 current amplification rate (%) [2]: 173%

CC1CC=C(c2ccc(=O)n(CC(=O)Nc3ccc4c(cnn4C)c3)n2)CC1 (stereo not shown) [Example 336]
Nav1.1 current amplification rate (%) [2]: 68%

CC(C)c1ccc(NC(=O)Cn2ncc3ncc(N(C)C4CC4)nc32)cn1 [Example 708]
Nav1.1 current amplification rate (%) [3]: 25%

CC1CC=C(c2ccc(=O)n(CC(=O)Nc3cncc(CN(C)C)c3)n2)CC1 (stereo not shown) [Example 365]
Nav1.1 current amplification rate (%) [4]: 32%

CC1CCN(c2ccc(=O)n(CC(=O)Nc3ccc4nccn4c3)n2)CC1 [Example 90]
Nav1.1 current amplification rate (%) [1]: 31%

CC1C=C(c2ccc(=O)n(CC(=O)Nc3ccc(C#N)cc3)n2)CC(C)O1 (stereo not shown) [Example 49]
Nav1.1 current amplification rate (%) [1]: 2%

CN(c1cnc2cnn(CC(=O)Nc3ccc4cccnc4c3)c2n1)C1CC1 [Example 711]
Nav1.1 current amplification rate (%) [2]: 100%

CN(CC1CCC1)c1ncc2cnn(CC(=O)Nc3ccc(C#N)nc3)c2n1 [Example 840]
activation at 1 µM [5]: 164%

Cc1cc(NC(=O)Cn2ncc3ccc(N(C)C4CC4)nc32)cc2ncnn12 [Example 886]
activation at 1 µM [5]: 125%

CC1CCCN(c2ccc(=O)n(CC(=O)Nc3ccc(C#N)cc3)n2)C1 (stereo not shown) [Example 13]
Nav1.1 current amplification rate (%) [1]: 76%

CC1CC=C(c2ccc(=O)n(CC(=O)N3CC=C(c4ccccn4)C3)n2)CC1 (stereo not shown) [Example 385]
Nav1.1 current amplification rate (%) [4]: 42%

CC1CC=C(c2ccc(=O)n(CC(=O)N3CC=C(c4cccnc4)C3)n2)CC1 (stereo not shown) [Example 386]
Nav1.1 current amplification rate (%) [4]: 126%

CC1CC=C(c2ccc(=O)n(CC(=O)N3CCc4c(C5=CCN(C)C5)cccc43)n2)CC1 (stereo not shown) [Example 267]
Nav1.1 current amplification rate (%) [3]: 231%

Cc1cc(-c2ncc3cnn(CC(=O)Nc4ccn5ncnc5c4)c3n2)oc1C [Example 781]
Nav1.1 current amplification rate (%) [4]: 15%

COC1CN(Cc2nc3cc(NC(=O)Cn4nc(C5=CCC(C)CC5)ccc4=O)ccc3o2)C1 (stereo not shown) [Example 332]
Nav1.1 current amplification rate (%) [3]: 15%

CC1CC=C(c2ccc(=O)n(CC(=O)N3CCc4c(C5CN(C6CCOC6)C5)cccc43)n2)CC1 (stereo not shown) [Example 305]
Nav1.1 current amplification rate (%) [3]: 314%

CN(C)c1cc(N2CCC3(CCC3)C2)nn(CC(=O)Nc2ccn3ccnc3c2)c1=O [Example 210]
activation at 10 µM (HEK293, Concentration for evaluation 10 μM, HEK293 cell line stably expressing human Nav1.1, read-out: Nav1.1 current amplification rate (%)): 178%

Cc1ccc(-c2ccc(=O)n(CC(=O)Nc3ccc4ocnc4c3)n2)s1 [Example 455]
Nav1.1 current amplification rate (%) [1]: 131%

CC1CC=C(c2ccc(=O)n(CC(=O)Nc3ccn4cc(C(F)(F)F)nc4c3)n2)CC1 (racemic) [Example 421]
Nav1.1 current amplification rate (%) [1]: 199%

CN(c1ncc2cnn(CC(=O)Nc3cnc4cccnc4c3)c2n1)C1CC1 [Example 841]
activation at 1 µM [5]: 28%

CC1CC=C(c2ccc(=O)n(CC(=O)N3CCc4c(C5CN(C(=O)CO)C5)cccc43)n2)CC1 (stereo not shown) [Example 321]
Nav1.1 current amplification rate (%) [3]: 478%

CC1CC2(C1)CN(c1cnc3cnn(CC(=O)Nc4ccn5ncnc5c4)c3n1)C2 [Example 638]
Nav1.1 current amplification rate (%) [1]: 58%

CN(CC1(F)CC1)c1cnc2cnn(CC(=O)Nc3ccn4ncnc4c3)c2n1 [Example 640]
Nav1.1 current amplification rate (%) [2]: 38%

CCC1(C)CCN(c2ccc(=O)n(CC(=O)Nc3ccc(C#N)cc3)n2)CC1 [Example 28]
Nav1.1 current amplification rate (%) [1]: 158%

CC1CC=C(c2ccc(=O)n(CC(=O)N3CCc4c(N5CCOCC5)cccc43)n2)C1 (stereo not shown) [Example 477]
Nav1.1 current amplification rate (%) [1]: 398%

CC1CCN(c2ccc(=O)n(CC(=O)Nc3ccc4oc(=O)n(C)c4c3)n2)CC1 [Example 81]
Nav1.1 current amplification rate (%) [1]: 69%

O=C(Cn1ncc2cnc(N3CCOCC3)nc21)Nc1ccn2ncnc2c1 [Example 767]
Nav1.1 current amplification rate (%) [1]: 60%

O=C(Cn1ncc2ncc(C3=CCC4(CC3)CC4)nc21)Nc1ccc2ncnn2c1 [Example 656]
Nav1.1 current amplification rate (%) [2]: 70%

CN(c1ncc2cnn(CC(=O)Nc3ccn4ncnc4c3)c2n1)C1CCC(F)(F)C1 (stereo not shown) [Example 796]
Nav1.1 current amplification rate (%) [6]: 66%

CN(c1ncc2cnn(CC(=O)Nc3ccc(C#N)nc3)c2n1)C1CC2(CC2)C1 [Example 845]
activation at 1 µM [5]: 76%

COc1nc2cc(NC(=O)Cn3nc(N4CCC(C)CC4)ccc3=O)ccc2o1 [Example 99]
Nav1.1 current amplification rate (%) [1]: 103%

CN(c1cnc2cnn(CC(=O)Nc3cc4ccccc4nn3)c2n1)C1CC1 [Example 727]
Nav1.1 current amplification rate (%) [1]: 71%

CN(c1cnc2cnn(CC(=O)Nc3ccc4ccncc4c3)c2n1)C1CC1 [Example 732]
Nav1.1 current amplification rate (%) [2]: 152%

Cc1cccc(F)c1Oc1ncc2cnn(CC(=O)Nc3ccn4ncnc4c3)c2n1 [Example 783]
Nav1.1 current amplification rate (%) [3]: 11%

Cc1ccc(-c2ccc(=O)n(CC(=O)Nc3cncnc3)n2)cc1 [Example 141]
Nav1.1 current amplification rate (%) [1]: 46%

CN(c1ccc2cnn(CC(=O)Nc3ccc4ncnn4c3)c2n1)C1CCCC1 [Example 875]
Nav1.1 current amplification rate (%) [6]: 43%

O=C(Cn1ncc2cnc(N3CC(C4CC4)C3)nc21)Nc1ccn2ncnc2c1 [Example 782]
Nav1.1 current amplification rate (%) [4]: 64%

CN(CC1(C)CC1)c1cnc2cnn(CC(=O)Nc3ccc4ncnn4c3)c2n1 [Example 667]
Nav1.1 current amplification rate (%) [2]: 45%

CN(c1ncc2cnn(CC(=O)Nc3ccc4ncnn4c3)c2n1)C1CC(C)(C)C1 [Example 668]
Nav1.1 current amplification rate (%) [2]: 72%

COc1nc2cc(NC(=O)Cn3nc(C4=CCC(C)CC4)ccc3=O)ccc2o1 (stereo not shown) [Example 239]
Nav1.1 current amplification rate (%) [1]: 310%

CC1CC=C(c2ccc(=O)n(CC(=O)N3CCc4c3ccnc4C3=CCOC3)n2)CC1 (stereo not shown) [Example 284]
Nav1.1 current amplification rate (%) [2]: 91%

CN(c1cnc2cnn(CC(=O)Nc3ccc(C#N)nc3)c2n1)C1CC(C)(C)C1 [Example 756]
activation at 1 µM (HEK293, Concentration for evaluation 1 μM, HEK293 cell line stably expressing human Nav1.1, read-out: Nav1.1 current amplification rate (%)): 104%

CC(=O)N1CC(c2cccc3c2CCN3C(=O)Cn2ncc3ncc(N(C)C4CCC4)nc32)C1 [Example 695]
Nav1.1 current amplification rate (%) [2]: 219%

CC(C)(C)C1CCN(c2ccc(=O)n(CC(=O)Nc3ccc(C#N)cc3)n2)CC1 [Example 6]
Nav1.1 current amplification rate (%) [1]: 35%

COc1ccc(NC(=O)Cn2nc(N3CCC(C)CC3)ccc2=O)cn1 [Example 62]
Nav1.1 current amplification rate (%) [1]: 13%

O=C(Cn1ncc2ccc(N3CCC4(CC4)C(F)(F)C3)nc21)Nc1ccn2ncnc2c1 [Example 863]
Nav1.1 current amplification rate (%) [6]: 49%

CN(c1ncc2cnn(CC(=O)Nc3ccn4ncnc4c3)c2n1)C1CC(C)(C)C1 [Example 632]
Nav1.1 current amplification rate (%) [2]: 164%

CC1CC=C(c2ccc(=O)n(CC(=O)N3CC=C(c4nccc5occc45)CC3)n2)CC1 (stereo not shown) [Example 404]
Nav1.1 current amplification rate (%) [1]: 42%

CC1CC=C(c2ccc(=O)n(CC(=O)N3CCc4c(-c5ccnnc5)cccc43)n2)CC1 (stereo not shown) [Example 253]
Nav1.1 current amplification rate (%) [3]: 455%

CC1CCN(c2ccc(=O)n(CC(=O)Nc3cccc(-n4ccnc4)c3)n2)CC1 [Example 67]
Nav1.1 current amplification rate (%) [1]: 177%

CC1CC=C(c2ccc(=O)n(CC(=O)Nc3ccc4ncncc4c3)n2)CC1 (stereo not shown) [Example 355]
Nav1.1 current amplification rate (%) [2]: 130%

O=C(Cn1ncc2cnc(N3CCC4(CCC4)C3)nc21)Nc1ccn2ccnc2c1 [Example 834]
activation at 1 µM [5]: 26%

Cc1nc2cc(NC(=O)Cn3nc(C4=CCC(C)CC4)ccc3=O)cnc2s1 (stereo not shown) [Example 326]
Nav1.1 current amplification rate (%) [3]: 132%

CN(c1ncc2cnn(CC(=O)Nc3ccc4ncnn4c3)c2n1)C1CCC1 [Example 817]
Nav1.1 current amplification rate (%) [6]: 21%

N#Cc1ccc(NC(=O)Cn2nc(N3CCCC(C(N)=O)C3)ccc2=O)cc1 (stereo not shown) [Example 8]
Nav1.1 current amplification rate (%) [1]: 4%

CC1(C)CC=C(c2ccc(=O)n(CC(=O)Nc3ccc4c(c3)OCC4)n2)CC1 [Example 426]
Nav1.1 current amplification rate (%) [1]: 244%

CC1CC=C(c2ccc(=O)n(CC(=O)N3CCc4c3ccnc4C3=CCOCC3)n2)CC1 (stereo not shown) [Example 296]
Nav1.1 current amplification rate (%) [2]: 87%

CC1CC=C(c2ccc(=O)n(CC(=O)N3CCN(c4cnn(C)c4)CC3)n2)CC1 (stereo not shown) [Example 415]
Nav1.1 current amplification rate (%) [1]: 93%

N#Cc1ccc(NC(=O)Cn2nc(N3CCCCCCC3)ccc2=O)cc1 [Example 12]
Nav1.1 current amplification rate (%) [1]: 241%

CC1CC=C(c2ccc(=O)n(CC(=O)N3CCN(c4ccccc4)CC3)n2)CC1 (stereo not shown) [Example 258]
Nav1.1 current amplification rate (%) [3]: 79%

CC1CC=C(c2ccc(=O)n(CC(=O)N3CCN(c4ccn(C)n4)CC3)n2)CC1 (stereo not shown) [Example 412]
Nav1.1 current amplification rate (%) [4]: 36%

CN(c1cnc2cnn(CC(=O)Nc3cccc(N4CCOCC4)c3F)c2n1)C1CCCC1 [Example 671]
Nav1.1 current amplification rate (%) [2]: 34%

CC1CCN(c2ccc(=O)n(CC(=O)Nc3cccc(C#N)c3)n2)CC1 [Example 55]
Nav1.1 current amplification rate (%) [1]: 111%

CN(c1cnc2cnn(CC(=O)Nc3ccn4ccnc4c3)c2n1)C1CCC1 [Example 685]
Nav1.1 current amplification rate (%) [2]: 41%

CC1CCN(c2ccc(=O)n(CC(=O)Nc3ccn4nccc4c3)n2)CC1 [Example 71]
Nav1.1 current amplification rate (%) [1]: 131%

N#Cc1ccc(NC(=O)Cn2nc(N3CCC4(CC4)C3)ccc2=O)cc1 [Example 25]
Nav1.1 current amplification rate (%) [1]: 163%

CN(c1cnc2cnn(CC(=O)Nc3ccc4cccnc4n3)c2n1)C1CC1 [Example 712]
Nav1.1 current amplification rate (%) [4]: 78%

O=C(Cn1ncc2cnc(C3=CCC(F)(F)CC3)nc21)Nc1ccc2ncnn2c1 [Example 812]
Nav1.1 current amplification rate (%) [6]: 13%

Cc1cc(NC(=O)Cn2ncc3cnc(N(C)C4CCCC4(F)F)nc32)cc2ncnn12 (stereo not shown) [Example 839]
activation at 1 µM [5]: 143%
